Usually IC50 stands for the concentration at which inhibition is half-maximal. Lower therefore signals greater potency. One may read the inhibition as the drop in the measured response relative to a control, in per cent.

For experiment [1], the target named is T1, Soybean lipoxygenase type I-B (Glycine max, UniProt P08170).
T1 construct: purchased Sigma Aldrich
T1 sequence (P08170 1-839): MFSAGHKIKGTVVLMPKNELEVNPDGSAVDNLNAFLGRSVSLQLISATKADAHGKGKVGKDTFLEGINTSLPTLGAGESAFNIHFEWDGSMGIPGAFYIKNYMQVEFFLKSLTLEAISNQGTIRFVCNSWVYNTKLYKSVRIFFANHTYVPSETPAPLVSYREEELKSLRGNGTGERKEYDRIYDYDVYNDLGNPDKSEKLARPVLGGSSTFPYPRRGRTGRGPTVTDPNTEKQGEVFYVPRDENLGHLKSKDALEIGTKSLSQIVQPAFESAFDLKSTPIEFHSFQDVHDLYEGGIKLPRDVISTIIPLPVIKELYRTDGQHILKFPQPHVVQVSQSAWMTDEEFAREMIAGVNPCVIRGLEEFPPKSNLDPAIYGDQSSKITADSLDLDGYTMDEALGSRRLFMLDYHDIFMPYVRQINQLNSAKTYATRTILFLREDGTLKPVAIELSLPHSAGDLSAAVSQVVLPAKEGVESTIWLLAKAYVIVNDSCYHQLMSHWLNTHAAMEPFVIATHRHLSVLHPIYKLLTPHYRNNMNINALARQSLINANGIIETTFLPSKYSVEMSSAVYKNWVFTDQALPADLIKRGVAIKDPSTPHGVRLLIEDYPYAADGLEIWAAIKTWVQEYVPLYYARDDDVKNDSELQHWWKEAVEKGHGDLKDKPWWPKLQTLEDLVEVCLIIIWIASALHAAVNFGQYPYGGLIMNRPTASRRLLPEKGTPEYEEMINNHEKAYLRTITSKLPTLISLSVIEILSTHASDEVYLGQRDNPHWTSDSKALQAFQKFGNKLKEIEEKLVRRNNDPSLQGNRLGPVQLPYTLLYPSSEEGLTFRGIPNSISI
Put plainly: Soy lipoxygenase inhibitory assay. The format is biochemical. On the procedure:
Soy lipoxygenase inhibitory assay was performed according to the method proposed by Azhar-Ul-Haq et al.. Rutin was used as positive control. 160 μl of 100 mM sodium phosphate buffer (pH8.0), 10 μl of ACRH and QRF were dissolved in ethanol in different concentrations (200 μg/mL, 100 μg/mL, 50 μg/mL, 25 μg/mL, and 12.5 μg/mL) and 20 μl of lipoxygenase solution were mixed in the well and incubated for 10 mins at room temperature. The reaction was then initiated by adding 10 μl of linoleic solution and the absorbance was determined at 234 nm after 6 minutes. All concentrations were performed in triplicate. The IC50 value was then calculated.
(§1) In mouse sponge implantation assay, statistical analysis was performed using SPSS version 16. One-way Analysis of Variance (ANOVA) with post-hoc test of Least Significant Difference (LSD) were utilised with P < 0.05 was considered to be statistically significant. The results were reported as mean ± SEM. For in vitro studies, average of the results obtained was determined in order to construct a graph, whereby IC50 of each groups were identified, respectively. IC50 was calculated using GraphPad Prism 5 software. Data were reported as mean ± SEM.

A further experiment addresses T2, COX-2 (Ovis aries, UniProt P79208).
T2 construct: purchased Cayman 760111
T2 sequence (P79208 17-603): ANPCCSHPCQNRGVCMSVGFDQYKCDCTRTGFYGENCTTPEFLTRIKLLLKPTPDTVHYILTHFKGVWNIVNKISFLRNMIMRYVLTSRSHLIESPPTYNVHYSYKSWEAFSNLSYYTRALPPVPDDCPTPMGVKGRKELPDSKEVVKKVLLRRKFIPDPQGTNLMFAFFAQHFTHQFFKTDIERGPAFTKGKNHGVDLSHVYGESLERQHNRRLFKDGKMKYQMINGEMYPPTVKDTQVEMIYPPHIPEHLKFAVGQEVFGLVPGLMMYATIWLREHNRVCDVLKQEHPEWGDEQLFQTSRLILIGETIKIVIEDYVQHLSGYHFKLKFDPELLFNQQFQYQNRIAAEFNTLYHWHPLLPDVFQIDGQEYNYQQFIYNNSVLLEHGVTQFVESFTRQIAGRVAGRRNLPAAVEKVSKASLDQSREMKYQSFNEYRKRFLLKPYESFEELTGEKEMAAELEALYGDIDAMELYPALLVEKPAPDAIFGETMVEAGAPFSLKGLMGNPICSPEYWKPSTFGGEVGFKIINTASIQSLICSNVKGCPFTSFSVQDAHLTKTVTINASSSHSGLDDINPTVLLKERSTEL
Put plainly: Colorimetric COX (ovine) inhibitor screening assay, COX-2. The format is biochemical. The note with it: read-out: Percentage of COX inhibition (%) COX-2. As to the method:
(§2) Cyclooxygenase activity assay was performed according to Yang et al., with slight modification. […] The assay was conducted by monitoring the appearance of oxidized N, N, N’, N’- tetramethyl-p-phenediamine (TMPD) at […]. […] The plate was shaken for a few seconds and incubated for 5 min at 25°C. 20 μl of the colorimetric substrate solution (TMPD) was added to all of the wells. 20 μl of arachidonic acid was added to all the wells. The plate was shaken for a few seconds and incubated for 5 min at 25°C. The absorbance was measured at 590 nm using a microplate reader. Average absorbance was calculated for all the samples (n = 3) in order to determine the percentage of inhibition. The calculation of inhibitory percentage is as portrayed below:
(§3) %inhibition=100%initialactivity‒inhibitorwells/100%initialactivity×100
as §1

A further experiment addresses T3, COX-1 (Ovis aries, UniProt P05979).
T3 construct: purchased Cayman 760111
T3 sequence (P05979 25-600): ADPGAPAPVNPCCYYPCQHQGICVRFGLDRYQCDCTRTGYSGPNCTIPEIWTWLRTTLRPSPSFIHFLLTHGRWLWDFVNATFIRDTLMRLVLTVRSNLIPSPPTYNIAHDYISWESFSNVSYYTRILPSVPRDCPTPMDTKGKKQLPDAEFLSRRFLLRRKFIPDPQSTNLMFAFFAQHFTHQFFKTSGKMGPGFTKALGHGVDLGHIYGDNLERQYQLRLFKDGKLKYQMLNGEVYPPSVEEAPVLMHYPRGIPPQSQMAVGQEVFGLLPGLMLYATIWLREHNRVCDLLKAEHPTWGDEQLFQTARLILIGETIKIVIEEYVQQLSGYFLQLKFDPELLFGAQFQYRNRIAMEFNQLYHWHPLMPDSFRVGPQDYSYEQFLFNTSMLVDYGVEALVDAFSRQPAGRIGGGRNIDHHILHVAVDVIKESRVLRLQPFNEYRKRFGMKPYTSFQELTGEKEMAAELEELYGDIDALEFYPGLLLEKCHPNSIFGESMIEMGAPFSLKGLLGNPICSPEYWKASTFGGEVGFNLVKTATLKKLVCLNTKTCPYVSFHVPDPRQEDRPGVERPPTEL
Put plainly: Colorimetric COX (ovine) inhibitor screening assay, COX-1. The format is biochemical. The note with it: n = 3. On the procedure:
as §2, §3, §1

The subject of experiment [2] is VEGF-induced blood vessel formation. Put plainly: Mouse sponge implantation assay (VEGF-impregnated gelatin sponge, mean vascular density). The format is in vivo. The note with it: 100 ng treatment in VEGF sponge, 14 days; relative to VEGF group.
Description: Prior to experimentation, absorbable gelatin sponge was cut (5 mm × 8 mm) and hydrated in sterile PBS overnight at 4°C. […] The sponges were allowed to solidify at room temperature for one hour before commencement of the experiment. Mice were anesthetized with Avertin (10 mL/kg) prior to experimentation. Hardened gel piece was inserted into incised subcutaneous pocket created laterally. The animals were allowed to recuperate for 14 days. After that, the animals were euthanized and the gel piece was harvested and rinsed with normal saline.
The sponge samples were fixed in 10% formalin (v/v) for 7 days and subjected to histopathological analysis. The number of vessels was counted in 15 consecutive fields using a 20X objective and the mean MVD was calculated [19].
In mouse sponge implantation assay, statistical analysis was performed using SPSS version 16. One-way Analysis of Variance (ANOVA) with post-hoc test of Least Significant Difference (LSD) were utilised with P < 0.05 was considered to be statistically significant. The results were reported as mean ± SEM. […] Data were reported as mean ± SEM.

In turn, `CC(=O)Oc1ccccc1C(=O)O` [Aspirin] gave an IC50 in experiment [1] of 763 µM. In addition, at COX-2, the inhibition at 12.5 µg/mL is 33.9 ± 1.07%, the inhibition at 25 µg/mL is 51.38 ± 0.154%, the inhibition at 50 µg/mL was 54.29 ± 0.307% and the inhibition at 100 µg/mL came out at 59.05 ± 0.153%. Moreover, at COX-2, the inhibition at 200 µg/mL is 62.42 ± 0.154%. On COX-1 (12.5 μg/ml), the “Percentage of COX inhibition (%) COX-1” value came to 27.778 ± 0.505%. For the same molecule, on COX-1 (25 μg/ml), the “Percentage of COX inhibition (%) COX-1” value is listed as 36.027 ± 1.347%. Also, the “Percentage of COX inhibition (%) COX-1” value on COX-1 (50 μg/ml) is 37.879 ± 0.842%. Moreover, the “Percentage of COX inhibition (%) COX-1” value on COX-1 (100 μg/ml) is recorded as 40.067 ± 1.347%. The “Percentage of COX inhibition (%) COX-1” value at COX-1 (200 μg/ml) came to 46.465 ± 0.505%.
In experiment [1], `C[C@@H]1O[C@@H](OC[C@H]2O[C@@H](Oc3c(-c4ccc(O)c(O)c4)oc4cc(O)cc(O)c4c3=O)[C@H](O)[C@@H](O)[C@@H]2O)[C@H](O)[C@H](O)[C@H]1O` [Rutin] gave an IC50 of 72.7 µM.
For `CC1(C)Cc2c(-c3ccccc3)c(-c3ccc(Cl)cc3)c(CC(=O)O)n2C1` [licofelone], in experiment [2], the “% inhibition (of MVD)” value is 67.14%.

The values are drawn from paper PMC4000009, “Ardisia crispa roots inhibit cyclooxygenase and suppress angiogenesis” (BMC Complementary and Alternative Medicine, 2014).
